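A five-concentration, 48-hour dose response in 96-well plates underlies each endpoint, interpolated linearly between surrounding concentrations. GI50 marks 50% less growth.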 Active and inactive are the calls of the source. Rule as the data show it: active = GI50 up to about 1.1 µM and inactive = higher. Bridge positions count the residues as written; N and C are the ends. Where a SMILES comes first, the peptide text is derived from it. Peptide text beside a SMILES is read from it. [ ]: non-standard residue; d: D form. * marks the point of attachment. Aoe = N[C@@H](CCCCCC(=O)[C@@H]1CO1)C(=O)O; Cbz = O=C(OCc1ccccc1)*
Tests used:
Experiment in all cases: NCI anticancer screen, dose series, 48 h
786-0 = tested on: 786-0
A549 = tested on: A549
COLO 205 = tested on: COLO 205
HCT-116 = tested on: HCT-116
HL-60 = tested on: HL-60
HOP-62 = tested on: HOP-62
K562 = tested on: K562
MDA-N = tested on: MDA-N
NCI-H23 = tested on: NCI-H23
OVCAR-5 = tested on: OVCAR-5
RPMI-8226 = tested on: RPMI-8226
SF-268 = tested on: SF-268
SK-MEL-28 = tested on: SK-MEL-28
SK-MEL-2 = tested on: SK-MEL-2
SK-OV-3 = tested on: SK-OV-3
SNB-19 = tested on: SNB-19
SR = tested on: SR
SW-620 = tested on: SW-620
UACC-62 = tested on: UACC-62
NCI-H226 = tested on: NCI-H226

Measured: GI50

Cc1ccc(S(=O)(=O)NC(=O)NS(=O)(=O)O)cc1
active: RPMI-8226 0.0771 µM | SR < 0.01 µM
inactive: 786-0 > 100 µM | A549 > 100 µM | COLO 205 > 100 µM | HCT-116 > 100 µM | HL-60 > 100 µM | HOP-62 > 100 µM | K562 > 100 µM | MDA-N > 100 µM | NCI-H23 > 100 µM | OVCAR-5 > 100 µM | SF-268 > 100 µM | SK-MEL-28 > 100 µM | SK-MEL-2 > 100 µM | SK-OV-3 > 100 µM | SNB-19 > 100 µM | SW-620 > 100 µM | UACC-62 > 100 µM

CN(C)CCNC(=O)c1cccc2c1Oc1cccc([N+](=O)[O-])c1O2
inactive: 786-0 19.2 µM | A549 16 µM | COLO 205 21.6 µM | HCT-116 16.9 µM | HL-60 17.1 µM | HOP-62 16.1 µM | K562 20 µM | MDA-N 17.7 µM | NCI-H226 12.7 µM | NCI-H23 24.7 µM | OVCAR-5 20.5 µM | SF-268 21.2 µM | SK-MEL-28 18.8 µM | SK-MEL-2 23.5 µM | SK-OV-3 14 µM | SNB-19 30 µM | SR 21.1 µM | SW-620 19.3 µM | UACC-62 18.1 µM

COc1cc(Cn2c3c(c4cc(O)ccc42)C(=O)c2ccccc2C3=O)cc(OC)c1
active: HCT-116 0.881 µM | RPMI-8226 0.337 µM | SR 0.494 µM
inactive: 786-0 2.37 µM | A549 10.5 µM | COLO 205 12.6 µM | HL-60 13.7 µM | HOP-62 2.77 µM | MDA-N 1.49 µM | NCI-H23 8.57 µM | OVCAR-5 9.23 µM | SF-268 2.88 µM | SK-MEL-28 7.96 µM | SK-MEL-2 14.7 µM | SK-OV-3 2.32 µM | SNB-19 4.5 µM | SW-620 16.7 µM | UACC-62 2.04 µM

NC1OC(COC(=O)c2ccccc2)C(O)C(OC(=O)c2ccccc2)C1OC(=O)c1ccccc1 (stereo not drawn)
inactive: 786-0 15.5 µM | A549 19.1 µM | COLO 205 22.1 µM | HCT-116 18.8 µM | HOP-62 22.7 µM | MDA-N 22.3 µM | NCI-H226 20.8 µM | NCI-H23 25.4 µM | OVCAR-5 24.3 µM | RPMI-8226 > 100 µM | SF-268 22.6 µM | SK-MEL-28 20.2 µM | SK-MEL-2 29.9 µM | SK-OV-3 41.3 µM | SNB-19 33 µM | SR > 10 µM | SW-620 19 µM | UACC-62 14.1 µM

Cc1cccc2c1Oc1cc(Cl)ccc1C2NC(=O)CCN1CCOCC1 (stereo not drawn)
inactive: 786-0 > 100 µM | A549 > 100 µM | COLO 205 > 100 µM | HCT-116 > 100 µM | HL-60 32.2 µM | HOP-62 > 100 µM | K562 > 100 µM | MDA-N > 100 µM | NCI-H23 > 100 µM | OVCAR-5 > 100 µM | SF-268 > 100 µM | SK-MEL-28 > 100 µM | SK-OV-3 > 100 µM | SNB-19 > 100 µM | SR > 100 µM | SW-620 > 100 µM | UACC-62 50.1 µM

c1ccc(CNCCCCNCCCNCc2ccccc2)cc1
inactive: 786-0 17.2 µM | A549 17.4 µM | COLO 205 13.6 µM | HCT-116 17.3 µM | HOP-62 22.2 µM | K562 18 µM | MDA-N 12.9 µM | NCI-H226 20.2 µM | NCI-H23 22 µM | OVCAR-5 30.2 µM | RPMI-8226 27.7 µM | SF-268 18.8 µM | SK-MEL-28 16 µM | SK-MEL-2 31.6 µM | SK-OV-3 > 100 µM | SNB-19 16.4 µM | SR 17.6 µM | SW-620 15.8 µM | UACC-62 16.6 µM

Cc1nc(=O)[nH]c2c1C(=O)N(C(C)C)C(NC(C)C)S2 (stereo not drawn)
inactive: 786-0 > 100 µM | A549 > 100 µM | COLO 205 > 100 µM | HCT-116 > 100 µM | HL-60 > 100 µM | HOP-62 > 100 µM | K562 > 100 µM | MDA-N > 100 µM | NCI-H226 > 100 µM | NCI-H23 > 100 µM | OVCAR-5 > 100 µM | RPMI-8226 > 100 µM | SK-MEL-28 > 100 µM | SK-MEL-2 > 100 µM | SK-OV-3 > 100 µM | SNB-19 > 100 µM | SW-620 > 100 µM | UACC-62 76 µM

COC(=O)c1c(-c2ccc(Cl)cc2)cc2c3ccccc3n(C)c2c1C(=O)OC
inactive: 786-0 > 100 µM | A549 > 100 µM | COLO 205 > 100 µM | HCT-116 > 100 µM | HL-60 26.8 µM | HOP-62 > 100 µM | K562 22.8 µM | MDA-N > 100 µM | NCI-H226 > 100 µM | NCI-H23 > 100 µM | OVCAR-5 > 100 µM | SF-268 > 100 µM | SK-MEL-28 > 100 µM | SK-MEL-2 > 100 µM | SK-OV-3 > 100 µM | SNB-19 > 100 µM | SW-620 > 100 µM | UACC-62 > 100 µM

C=CCN1C[C@H](C)N([C@H](c2ccc(C(=O)NC(CC)CC)cc2)c2cccc(OC)c2)C[C@H]1C
inactive: 786-0 34.6 µM | A549 33.9 µM | COLO 205 17.9 µM | HCT-116 21.6 µM | HL-60 10.9 µM | HOP-62 > 100 µM | K562 32.4 µM | MDA-N 37.3 µM | NCI-H226 70.5 µM | NCI-H23 43.2 µM | OVCAR-5 59.6 µM | SF-268 83.2 µM | SK-MEL-2 20.9 µM | SK-OV-3 > 100 µM | SNB-19 75 µM | SR 23.7 µM | SW-620 29.9 µM | UACC-62 20.8 µM

CC(=O)OCC1OC(n2c(C)c(C)c(C)c(C#N)c2=S)C(OC(C)=O)C(OC(C)=O)C1OC(C)=O (stereo not drawn)
inactive: 786-0 23.7 µM | A549 > 100 µM | COLO 205 > 100 µM | HCT-116 28.6 µM | HL-60 > 100 µM | HOP-62 13.3 µM | K562 > 100 µM | MDA-N > 100 µM | NCI-H226 > 100 µM | NCI-H23 > 100 µM | OVCAR-5 > 100 µM | SF-268 95.5 µM | SK-MEL-28 > 100 µM | SK-MEL-2 31.9 µM | SK-OV-3 24.8 µM | SNB-19 33.7 µM | SR > 100 µM | SW-620 > 100 µM | UACC-62 > 100 µM

Clc1cccc(-c2sc(-c3ccsc3)cc2Cc2ccsc2)c1
inactive: 786-0 > 10 µM | A549 > 10 µM | COLO 205 > 10 µM | HL-60 > 10 µM | HOP-62 > 10 µM | K562 > 10 µM | MDA-N > 10 µM | NCI-H23 > 10 µM | RPMI-8226 > 10 µM | SF-268 > 10 µM | SK-MEL-28 > 10 µM | SK-OV-3 > 10 µM | SR > 10 µM | SW-620 > 10 µM | UACC-62 > 10 µM

O=c1cc(N2CCCC2)[nH]c(=O)n1-c1cccc(Cl)c1
inactive: 786-0 > 100 µM | COLO 205 > 100 µM | HCT-116 > 100 µM | HL-60 > 100 µM | HOP-62 > 100 µM | K562 > 100 µM | MDA-N > 100 µM | NCI-H226 > 100 µM | NCI-H23 > 100 µM | OVCAR-5 > 100 µM | RPMI-8226 > 100 µM | SF-268 > 100 µM | SK-MEL-2 > 100 µM | SK-OV-3 > 100 µM | SNB-19 > 100 µM | SW-620 > 100 µM | UACC-62 > 100 µM

CNC(=O)C1CCCCNC(=O)CCC(NC(=O)OCc2ccccc2)C(=O)N1 (stereo not drawn) (Cbz-Glu-Lys-NHMe; lactam 1-2; configuration not given here)
inactive: 786-0 > 100 µM | A549 > 100 µM | COLO 205 > 100 µM | HCT-116 > 100 µM | HL-60 > 100 µM | HOP-62 > 100 µM | K562 > 100 µM | MDA-N > 100 µM | NCI-H226 > 100 µM | NCI-H23 > 100 µM | OVCAR-5 > 100 µM | RPMI-8226 > 100 µM | SF-268 > 100 µM | SK-MEL-28 > 100 µM | SK-MEL-2 > 100 µM | SK-OV-3 > 100 µM | SNB-19 > 100 µM | SW-620 > 100 µM | UACC-62 > 100 µM

O=C1N[C@@H](Cc2ccccc2)C(=O)N2CCC[C@@H]2C(=O)N[C@@H](CCCCCC(=O)[C@@H]2CO2)C(=O)N[C@H]1Cc1ccccc1 [TRAPOXIN B] (cyclo(FF[dP][Aoe]))
active: 786-0 0.00294 µM | A549 0.00265 µM | COLO 205 0.000778 µM | HCT-116 0.000256 µM | HOP-62 < 0.000212 µM | K562 < 0.000212 µM | MDA-N 0.000512 µM | NCI-H226 0.222 µM | OVCAR-5 0.00197 µM | RPMI-8226 0.000332 µM | SF-268 0.0119 µM | SK-MEL-28 0.000713 µM | SK-MEL-2 0.00116 µM | SK-OV-3 0.05 µM | SNB-19 0.103 µM | SW-620 0.000305 µM | UACC-62 0.000435 µM

CC(C)[C@]12O[C@H]1[C@@H]1O[C@]13[C@]1(O[C@H]1C[C@H]1C4=C(CC[C@@]13C)C(=O)OC4)[C@@H]2O [TRIPTOLIDE]
active: 786-0 0.0169 µM | COLO 205 0.00776 µM | HCT-116 0.00258 µM | HL-60 0.00667 µM | HOP-62 0.00701 µM | K562 0.017 µM | MDA-N 0.00759 µM | NCI-H226 0.0216 µM | NCI-H23 0.00322 µM | SF-268 0.0249 µM | SK-MEL-28 0.00637 µM | SK-MEL-2 0.00643 µM | SK-OV-3 0.0474 µM | SNB-19 0.104 µM | SR 0.0173 µM | SW-620 0.0141 µM | UACC-62 0.00421 µM
